What was measured:
[1] = test system: MYXV; assay: MYXV infection of 3D spheroid cultures of human cancer cells (GFP/TdTomato fluorescence); assay type: cell-based, myxoma virus
From the text: In vitro three-dimensional (3D) cell culture allows cells to contact each other and form a platform representing in vivo tumor masses (Lv, D., et al., 2017, Oncology Letters, 14:6999-7010). As an initial test whether selinexor can enhance MYXV replication in tumor masses, a 3D cell culture using type 1 collagen was established. The semi-permissive and non-permissive human cancer cells PANC-1 (FIG. 6A), MDA-MB435 (FIG. 6C), HT29 (FIG. 6E), and Colo205 (FIG. 6G) were used to form 3D spheroids in 96 well plates. After several days of incubation, the cells formed spheroids.
After reaching a desirable size, spheroids were mock-treated or treated with different concentrations of selinexor (e.g., 0.1 μM, 1 μM) for one hour then infected with vMyx-GFP-TdTomato (1×10^7 FFU) in the presence of selinexor.
Spheroid Generation and Virus Infection: Different cancer cell lines were grown and maintained as previously described and used for spheroid generation within 2-5 passages. 96-well plates were prepared with rat tail collagen I to form the surface for spheroid culture. On the day of cell seeding for spheroid generation, the cells were dissociated with TrypLE, the TrypLE neutralized with fresh complete media, the cells spun down, and resuspended in fresh complete media. After making a single cell suspension, cells were counted using a Countess II automated cell counter and 1000 cells in 100 μL were plated on the surface of the collagen matrix. The cells were observed daily for spheroid formation. After 5-7 days, when spheroids reached the desired size, they were treated with selinexor and infected with vMyx-GFP-TdTomato.

[2] = test system: PANC-1 xenograft tumors; assay: PANC-1 xenograft tumor model in NSG mice; assay type: in vivo
Method: Based on the in vivo results showing selinexor enhances MYXV replication in the tumor bed and reduces the tumor burden in Colo205 and HT29 xenograft tumors, the treatment was examined in PANC-1 xenograft tumors. Human PANC-1 cells were injected subcutaneously on both sides of the flank to generate tumors (FIG. 11A). After the tumor size reached ˜50-100 mm^3 (2-3 weeks), animals were randomly assigned to treatment groups to have approximately equal average tumor size. Animals (n=6) were then treated with PBS, selinexor, MYXV, or selinexor+MYXV. Animals received a total of four treatments within the first two weeks and tumor burden was measured 2-3 times every week. After the first treatment, mice were imaged using the IVIS system for luciferase expression at 24 and 72 hours post-treatment (FIG. 11B and FIG. 11C). […] After imaging and measuring luciferase signals, three additional treatments to test their therapeutic effect on tumor burden and survival were administered.
Luciferase signals in animals were also measured before the endpoint to confirm the presence of the virus in the tumor bed after the final (fourth) injection. […] Luciferase signal was measured again 23 days after the last viral injection, at which point high luciferase activity was still observed in each group (FIG. 13C). At the endpoint, tumors were collected and virus titration assays were performed (FIG. 13D). […] In both tumors, although not significant, viral load was higher in selinexor+MYXV treated mice than mice treated with MYXV alone.
Animal Studies: Male and female NSG mice were purchased from Jackson laboratory at 6-8 weeks of age. Animals were housed under sterile conditions. The animals were acclimatized for at least seven days before tumor implantation or any experimental procedures. Cells (1×10^6/mouse in 100 μL PBS) were subcutaneously injected into the flanks of NSG mice. […] Tumor volume was measured two or three times per week as follows: volume=(length×width^2)/2. […]

[3] = test system: MYXV; assay: Viral replication assay: progeny virus titration on permissive rabbit RK13 cells; assay type: cell-based, myxoma virus; details: PANC-1, Colo205, and MDA-MB435; selinexor; 24, 48, 72 h
Method: Viral titers in different human cancer cell lines were determined using a viral replication assay. Cells were seeded in 24-well plates (2×10^5 cells/well). The next day, the cells were treated with different concentrations of leptomycin B (LMB) or selinexor diluted in DMEM for 1 hour. MYXV was added to the cells and incubated for one hour at 37° C. After 1 hour, the unbound viruses were washed away using DMEM, and DMEM with LMB or selinexor was added to the cells. Cells were harvested in DMEM without LMB or selinexor at the indicated time points. After harvesting the cells, they were stored at −80° C. until processing. Samples were subjected to three freeze/thaw cycles and one-minute sonification to lyse cells and release the viral particles. Afterwards, different dilutions were prepared in DMEM and plated on rabbit RK13 and foci were counted after 48 hours using a fluorescent microscope. All assays and dilutions were performed in triplicate.

[4] = test system: Colo205 cells; assay: CyQUANT NF cell proliferation assay (Colo205); assay type: cell-based, human; details: after 24 hours compared to mock treated cells, selinexor 0.1 or 1 μM, multiple MOI
Method: Cell Proliferation Assay: To measure cancer cell proliferation based on the amount of cellular DNA, the CyQuant™ NF Cell Proliferation Assay Kit (Invitrogen) was used according to the manufacturer's instructions. Briefly, PANC-1, HT29, MDA-MB435, and Colo205 cells were seeded in a 96-well plate (1×10^4 cells/well) and left to attach to the wells overnight. The next day, the medium was removed and replaced with 50 μL medium containing different concentrations of selinexor (0-1 μM). After an hour of incubation with selinexor, the virus was added to different MOIs (0.5-5), bringing the end volume of every well up to 100 μL. A 1× dye binding solution was prepared by adding 9 μL of the CyQuant™ NF Dye reagent in 4.5 mL Hank's Balanced Salt Solution (HBSS) buffer (Invitrogen). After 24, 48, 72, and 96 hours of incubation, the medium was removed from the cells and 50 μL 1× dye solution was added to all wells. The microplate was covered to protect it from light and was incubated for 30-60 minutes in a 5% CO2 incubator at 37° C. Subsequently, cell proliferation was quantified by measuring fluorescence with an excitation of 485 nm and emission of 530 nm in a VarioSkan Lux Microplate reader (Thermo Fisher). All experiments were performed in quadruple and normalized to mock-treated cells.

In the case of O=C(/C=C\n1cnc(-c2cc(C(F)(F)F)cc(C(F)(F)F)c2)n1)NNc1cnccn1 [selinexor], the “GFP (early/late) and TdTomato (late) expression in spheroids by fluorescence microscopy” value ([1]; PANC-1, MDA-MB435, HT29, Colo205 spheroids, selinexor 0.1 or 1 μM, vMyx-GFP-TdTomato 1×10^7 FFU) was “enhanced”, the “virus penetration into spheroids” value ([1]; selinexor plus MYXV compared to MYXV infection alone) was “greater penetration into the spheroid interior” and the “quantification of GFP fluorescence in spheroids” value ([1]; selinexor-treated vs untreated infected spheroids, 72-96 h post-infection) was “significant increase in the level of GFP expression”. The “luciferase signals (IVIS) vs virus alone” value ([2]; 24 and 72 hours after first treatment) was “significantly higher levels of luciferase signals”, the “tumor burden compared to PBS or MYXV alone” value ([2]; four treatments within first two weeks) was “significant reduction in tumor burden” and the “survival compared to PBS or MYXV alone” value ([2]; mouse, in vivo) was “survived significantly longer”. The “increase in virus production compared to infection with MYXV alone” value [3] was 10-100 fold and the “cell proliferation (DNA content)” value [4] was “significant reductions in cell proliferation”.
